IC50 and efflux ratio data for 14 molecules are collected here from patent publication US11834453B2, “Substituted pyrimido[5,4-d]pyrimidines as HER2 inhibitors” (Array BioPharma Inc., priority 2020, dated 2023).

Data set [1] concerns the target ErbB2 with Exon 20 YVMA insertion (HER2-YVMA) (Homo sapiens (Human), UniProt P04626, INS775YVMA). As to the kind of experiment: Cellular phosphorylation assay, constitutive ErbB2 phosphorylation (Y1196) in engineered NIH 3T3 cells, Assay 4. It counts as cell-based. In short, it runs like this: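 In-cell Western in NIH 3T3 cells carrying ErbB2 exon 20 YVMA insertion, with no ligand stimulation. One hour compound exposure at 37 °C before fixation and anti-pY1196 plus GAPDH staining with dual-wavelength fluorescence. IC50 derived after GAPDH normalization.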

The target in data set [2] is MDR1 (P-gp) (Homo sapiens (Human), UniProt P08183). Nature of the data set: MDR1 transfected MDCKII canine Mdr1 knockout permeability/efflux, Assay 7. The following applies: dog, MDCK-MDR1.
Data set [3] deals with ErbB2 WT (Homo sapiens (Human), UniProt P04626). Nature of the data set: ErbB enzyme assay (CisBio HTRF KinEASE-TK), Assay 2. It counts as biochemical. The procedure, abridged:
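Readout is HTRF KinEASE-TK, using Sa-XL665 and cryptate antibody for 1 h at 22 °C, as percent of control between DMSO-only (100) and pre-quenched (0) reactions. The kinase reaction runs 30 min at 22 °C with 1 mM ATP and 250 nM biotinylated TK substrate, in HEPES pH 7.4 with MgCl2 and 2% DMSO.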

The target of data set [4] is ErbB2 insYVMA (HER2-YVMA, SEQ ID NO: 2) (Homo sapiens, UniProt P04626, INS775YVMA/P1170A). Nature of the data set: biochemical. The following applies: ErbB2 insYVMA enzyme assay; read-out: Assay 1 IC50.
Chain of ErbB2 insYVMA (HER2-YVMA, SEQ ID NO: 2) (P04626 with tags, fused parts or gaps INS775YVMA/P1170A limits assumed): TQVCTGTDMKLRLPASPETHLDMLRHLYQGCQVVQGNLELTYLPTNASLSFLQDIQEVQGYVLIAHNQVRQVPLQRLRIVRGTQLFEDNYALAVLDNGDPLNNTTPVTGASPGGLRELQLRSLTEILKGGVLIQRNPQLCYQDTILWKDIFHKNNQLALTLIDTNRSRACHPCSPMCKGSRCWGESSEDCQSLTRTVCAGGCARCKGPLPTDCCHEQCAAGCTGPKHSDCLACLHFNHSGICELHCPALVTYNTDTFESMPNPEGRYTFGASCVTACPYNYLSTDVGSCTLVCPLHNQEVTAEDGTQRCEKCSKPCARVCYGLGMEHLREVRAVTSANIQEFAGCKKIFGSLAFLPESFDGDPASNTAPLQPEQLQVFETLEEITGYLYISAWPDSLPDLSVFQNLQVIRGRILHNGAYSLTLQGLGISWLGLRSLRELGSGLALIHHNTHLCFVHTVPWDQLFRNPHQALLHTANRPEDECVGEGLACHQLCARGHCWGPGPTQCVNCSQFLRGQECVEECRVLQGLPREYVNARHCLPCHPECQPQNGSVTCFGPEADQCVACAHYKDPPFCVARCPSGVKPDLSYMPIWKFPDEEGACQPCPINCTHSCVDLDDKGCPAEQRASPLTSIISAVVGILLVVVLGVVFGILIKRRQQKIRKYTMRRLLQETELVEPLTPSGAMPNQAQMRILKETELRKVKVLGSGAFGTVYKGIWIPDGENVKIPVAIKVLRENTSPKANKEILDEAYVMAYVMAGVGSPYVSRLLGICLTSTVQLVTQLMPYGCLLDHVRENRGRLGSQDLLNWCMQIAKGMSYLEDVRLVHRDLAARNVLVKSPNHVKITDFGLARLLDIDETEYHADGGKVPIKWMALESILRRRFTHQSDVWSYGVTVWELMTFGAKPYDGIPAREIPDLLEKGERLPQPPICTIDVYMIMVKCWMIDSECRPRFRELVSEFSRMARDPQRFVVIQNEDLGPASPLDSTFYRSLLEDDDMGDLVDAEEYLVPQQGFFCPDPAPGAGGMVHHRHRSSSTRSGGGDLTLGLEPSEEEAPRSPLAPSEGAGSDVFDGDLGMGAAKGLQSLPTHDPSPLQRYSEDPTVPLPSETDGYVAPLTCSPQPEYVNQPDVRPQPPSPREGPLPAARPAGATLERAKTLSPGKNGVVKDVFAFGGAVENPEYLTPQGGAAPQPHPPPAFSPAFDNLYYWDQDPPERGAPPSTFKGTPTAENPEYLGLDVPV
Data set [5] concerns the target EGFR wild type (EGFR WT) (Homo sapiens (Human), UniProt P00533). Nature of the data set: Cellular phosphorylation assay, EGF-stimulated EGFR phosphorylation in engineered NIH 3T3 cells, Phospho-EGFR DuoSet IC ELISA, Assay 5. It counts as cell-based. In short, it runs like this: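 Phospho-EGFR ELISA on lysates of engineered NIH 3T3 EGFR WT cells, IC50 derived from concentration curves. Cells plated at 20,000/well overnight, given compound dilutions 1 h at 37 °C, then rEGF 100 ng/ml for a further 10 min before lysis.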

The target of data set [6] is BCRP (Homo sapiens (Human), UniProt Q9UNQ0). As to the kind of experiment: BCRP transfected MDCKII canine Mdr1 knockout permeability/efflux, Assay 9. The following applies: dog.
Chain of BCRP (Q9UNQ0 whole entry): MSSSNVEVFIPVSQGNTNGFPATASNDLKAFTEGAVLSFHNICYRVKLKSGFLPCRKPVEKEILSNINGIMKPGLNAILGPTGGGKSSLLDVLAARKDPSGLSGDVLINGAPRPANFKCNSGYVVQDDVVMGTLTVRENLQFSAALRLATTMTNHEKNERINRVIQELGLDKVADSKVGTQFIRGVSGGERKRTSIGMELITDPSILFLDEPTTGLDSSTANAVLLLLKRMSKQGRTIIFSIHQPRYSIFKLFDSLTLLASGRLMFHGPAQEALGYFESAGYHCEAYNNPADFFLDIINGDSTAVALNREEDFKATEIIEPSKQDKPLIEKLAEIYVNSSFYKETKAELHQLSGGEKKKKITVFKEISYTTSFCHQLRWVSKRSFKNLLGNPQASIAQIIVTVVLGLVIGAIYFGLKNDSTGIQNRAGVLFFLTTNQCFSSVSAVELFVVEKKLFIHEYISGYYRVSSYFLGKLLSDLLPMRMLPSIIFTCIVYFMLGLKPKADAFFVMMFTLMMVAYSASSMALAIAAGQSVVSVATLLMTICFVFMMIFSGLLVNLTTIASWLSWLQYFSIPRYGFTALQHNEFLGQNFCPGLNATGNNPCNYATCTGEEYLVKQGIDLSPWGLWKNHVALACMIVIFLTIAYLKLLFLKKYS
Data set [7] has as its target EGFR (Homo sapiens (Human), UniProt P00533). As to the kind of experiment: ErbB enzyme assay (CisBio HTRF KinEASE-TK), Assay 3. It counts as biochemical. In short, it runs like this: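 First, enzyme was reacted with compound, 1 mM ATP and 250 nM biotinylated tyrosine-kinase peptide for 30 min at 22 °C at pH 7.4. Next, streptavidin-XL665 and cryptate antibody were added for 1 h. Finally, HTRF ratios were converted to POC and fitted to yield IC50.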
A general note: In TR-FRET formats the signal depends on donor and acceptor labels being close together.

The mark [8] stands for this setting: Assay 9 Pe Ratio, efflux ratio Papp(B-A)/Papp(A-B), BCRP transfected MDCKII canine Mdr1 knockout.

Structures are written as SMILES.

Chain of ErbB2 WT (P04626 23-1255): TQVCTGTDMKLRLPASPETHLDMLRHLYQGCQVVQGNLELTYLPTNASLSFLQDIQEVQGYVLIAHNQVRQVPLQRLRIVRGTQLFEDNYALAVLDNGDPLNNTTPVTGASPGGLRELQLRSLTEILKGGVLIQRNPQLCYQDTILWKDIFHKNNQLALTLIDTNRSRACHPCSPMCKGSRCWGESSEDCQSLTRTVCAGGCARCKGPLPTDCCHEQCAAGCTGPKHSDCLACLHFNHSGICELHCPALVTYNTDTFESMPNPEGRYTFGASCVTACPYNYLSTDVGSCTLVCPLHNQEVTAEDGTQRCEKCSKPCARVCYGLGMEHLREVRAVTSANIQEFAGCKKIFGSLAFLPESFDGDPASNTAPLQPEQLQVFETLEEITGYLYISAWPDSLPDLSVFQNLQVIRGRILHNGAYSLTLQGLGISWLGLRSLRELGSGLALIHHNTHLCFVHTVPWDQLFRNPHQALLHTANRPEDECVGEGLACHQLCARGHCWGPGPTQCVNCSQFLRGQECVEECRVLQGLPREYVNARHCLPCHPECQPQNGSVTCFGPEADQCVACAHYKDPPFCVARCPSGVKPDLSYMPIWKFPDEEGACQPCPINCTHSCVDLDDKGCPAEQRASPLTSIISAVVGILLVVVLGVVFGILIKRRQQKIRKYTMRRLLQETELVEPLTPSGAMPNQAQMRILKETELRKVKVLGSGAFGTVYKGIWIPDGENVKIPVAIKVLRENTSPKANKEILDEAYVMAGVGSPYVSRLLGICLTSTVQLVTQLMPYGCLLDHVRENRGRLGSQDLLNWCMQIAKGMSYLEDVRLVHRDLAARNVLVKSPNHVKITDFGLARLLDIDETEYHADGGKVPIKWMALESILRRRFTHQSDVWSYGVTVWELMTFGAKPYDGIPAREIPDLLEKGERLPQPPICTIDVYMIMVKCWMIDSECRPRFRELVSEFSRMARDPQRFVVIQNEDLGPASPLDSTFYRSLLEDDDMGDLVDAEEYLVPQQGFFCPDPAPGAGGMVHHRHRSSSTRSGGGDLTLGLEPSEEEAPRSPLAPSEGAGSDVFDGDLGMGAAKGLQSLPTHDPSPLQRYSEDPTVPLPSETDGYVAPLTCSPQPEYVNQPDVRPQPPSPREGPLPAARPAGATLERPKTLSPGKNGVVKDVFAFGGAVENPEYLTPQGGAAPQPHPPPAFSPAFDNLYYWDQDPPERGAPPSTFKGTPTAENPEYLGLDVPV
Chain of ErbB2 with Exon 20 YVMA insertion (HER2-YVMA) (P04626 other isoform, or with tags, fused parts or gaps ins YVMA behind 775): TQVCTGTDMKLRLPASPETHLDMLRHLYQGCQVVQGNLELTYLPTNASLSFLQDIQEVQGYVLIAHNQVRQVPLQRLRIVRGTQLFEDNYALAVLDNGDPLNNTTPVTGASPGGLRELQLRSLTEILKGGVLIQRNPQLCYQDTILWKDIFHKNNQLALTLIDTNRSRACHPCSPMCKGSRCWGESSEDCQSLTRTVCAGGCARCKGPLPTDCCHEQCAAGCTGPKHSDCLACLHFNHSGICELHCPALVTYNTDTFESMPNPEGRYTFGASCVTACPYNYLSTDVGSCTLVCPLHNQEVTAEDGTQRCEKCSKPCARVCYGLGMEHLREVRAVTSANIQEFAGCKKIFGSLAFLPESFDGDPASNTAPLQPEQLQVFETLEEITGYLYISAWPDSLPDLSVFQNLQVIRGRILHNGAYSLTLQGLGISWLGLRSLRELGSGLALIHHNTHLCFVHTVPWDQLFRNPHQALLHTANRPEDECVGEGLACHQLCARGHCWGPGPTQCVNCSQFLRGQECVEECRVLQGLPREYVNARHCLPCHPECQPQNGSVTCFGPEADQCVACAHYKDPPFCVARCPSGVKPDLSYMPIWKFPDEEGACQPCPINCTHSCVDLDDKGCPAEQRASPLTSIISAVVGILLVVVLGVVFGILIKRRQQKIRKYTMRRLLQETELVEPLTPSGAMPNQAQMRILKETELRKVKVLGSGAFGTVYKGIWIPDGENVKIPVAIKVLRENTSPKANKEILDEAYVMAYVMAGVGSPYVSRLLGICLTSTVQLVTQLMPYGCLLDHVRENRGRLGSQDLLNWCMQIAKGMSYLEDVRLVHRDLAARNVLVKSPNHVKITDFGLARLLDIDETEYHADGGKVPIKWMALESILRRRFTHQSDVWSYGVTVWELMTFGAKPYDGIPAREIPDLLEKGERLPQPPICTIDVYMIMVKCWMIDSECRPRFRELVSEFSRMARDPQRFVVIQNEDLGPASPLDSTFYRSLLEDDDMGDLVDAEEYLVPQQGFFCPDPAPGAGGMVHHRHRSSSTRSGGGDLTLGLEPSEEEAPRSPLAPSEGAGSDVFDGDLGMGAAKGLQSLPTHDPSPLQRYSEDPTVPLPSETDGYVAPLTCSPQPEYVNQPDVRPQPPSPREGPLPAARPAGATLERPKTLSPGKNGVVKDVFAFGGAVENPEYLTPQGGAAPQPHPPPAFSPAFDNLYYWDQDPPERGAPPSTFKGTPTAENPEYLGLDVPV

As for `Cc1cc(Nc2ncnc3cnc(N4CCN[C@@H](C(F)(F)F)C4)nc23)ccc1Oc1ccc2c(c1)ncn2C` [Example 182, (R)—N-(3-methyl-4-((1-methyl-1H-benzo[d]imidazol-5-yl)oxy)phenyl)-6-(3-(trifluoromethyl)piperazin-1-yl)pyrimido[5,4-d]pyrimidin-4-amine], the 50% inhibitory concentration (IC50) (usually the concentration that gives 50% inhibition) in data set [1] was 17.7 nM; in data set [3] it was 34.7 nM; in data set [4] it was 29.5 nM; in data set [5], ≥ 5000 nM; in data set [7], 3130 nM. The efflux ratio (usually the permeability from basolateral to apical divided by that in the opposite direction, in the common usage) at 2 h, 1 μM in data set [2] came to 1.3; in data set [6] (setting [8]), 1.9.
With `Cc1cc(Nc2ncnc3cnc(N(C)[C@H]4C[C@@H](O)C4)nc23)ccc1Oc1ccc2c(c1)ncn2C` [Example 183], the half-maximal inhibitory concentration (IC50) is 5.1 nM in data set [1]; 5.8 nM in data set [3]; 4.4 nM in data set [4]; ≥ 5000 nM in data set [5]; 1050 nM in data set [7]. The efflux ratio at 2 h, 1 μM is 1.7 in data set [2] and 19.5 in data set [6] (setting [8]).
Take `Cc1cc(Nc2ncnc3cnc(N4CC[C@@H](C#N)C4)nc23)ccc1Oc1ccc2c(c1)ncn2C` [Example 184, (R)-1-(8-((3-methyl-4-((1-methyl-1H-benzo[d]imidazol-5-yl)oxy)phenyl)amino)pyrimido[5,4-d]pyrimidin-2-yl)pyrrolidine-3-carbonitrile]: the IC50 in data set [1] is 20.2 nM; in data set [3] it was 38.1 nM; in data set [4] it was 11.7 nM; in data set [5], ≥ 5000 nM; in data set [7], ≥ 10000 nM. Moreover, the efflux ratio at 2 h, 1 μM in data set [2] was 1.8; in data set [6] (setting [8]), 4.2.
With `Cc1cc(Nc2ncnc3cnc(N4C[C@@H](O)C(F)(F)C4)nc23)ccc1Oc1ccc2c(c1)ncn2C` [Example 185, (R)-4,4-difluoro-1-(8-((3-methyl-4-((1-methyl-1H-benzo[d]imidazol-5-yl)oxy)phenyl)amino)pyrimido[5,4-d]pyrimidin-2-yl)pyrrolidin-3-ol], the IC50 is 25.2 nM in data set [1]; 12.1 nM in data set [3]; 24.3 nM in data set [4]; ≥ 5000 nM in data set [5]; ≥ 10000 nM in data set [7]. For the same molecule, the efflux ratio at 2 h, 1 μM in data set [2] turned out to be 2; in data set [6] (setting [8]) it was 31.7.
Turning to `Cc1cc(Nc2ncnc3cnc(N(C)[C@H]4C[C@H](O)C4)nc23)ccc1Oc1ccc2c(c1)ncn2C` [Example 186, (1r,3r)-3-(methyl(8-((3-methyl-4-((1-methyl-1H-benzo[d]imidazol-5-yl)oxy)phenyl)amino)pyrimido[5,4-d]pyrimidin-2-yl)amino)cyclobutan-1-ol], the IC50 in data set [1] was 4.1 nM; in data set [3] it was 3.7 nM; in data set [4], 5.7 nM; in data set [5], ≥ 5000 nM; in data set [7], 592 nM. In addition, the efflux ratio at 2 h, 1 μM in data set [2] amounted to 1.4; in data set [6] (setting [8]) it was 24.2.
For the molecule `Cc1cc(Nc2ncnc3cnc(N4CCN5CCOC[C@@H]5C4)nc23)ccc1Oc1ccc2c(c1)ncn2C` [Example 190, (S)-6-(hexahydropyrazino[2,1-c][1,4]oxazin-8(1H)-yl)-N-(3-methyl-4-((1-methyl-1H-benzo[d]imidazol-5-yl)oxy)phenyl)pyrimido[5,4-d]pyrimidin-4-amine], the IC50 in data set [1] is 14.1 nM; in data set [3] it was 35 nM; in data set [4] it was 21.5 nM; in data set [5], ≥ 5000 nM; in data set [7] it was 8140 nM. Further, the efflux ratio at 2 h, 1 μM in data set [2] amounted to 1.3; in data set [6] (setting [8]), 4.7.
Turning to `Cc1cc(Nc2ncnc3cnc(N(C)[C@@H]4CCC[C@H]4O)nc23)ccc1Oc1ccc2c(c1)ncn2C` [Example 193, (1R,2R)-2-(methyl(8-((3-methyl-4-((1-methyl-1H-benzo[d]imidazol-5-yl)oxy)phenyl)amino)pyrimido[5,4-d]pyrimidin-2-yl)amino)cyclopentan-1-ol], the half-maximal inhibitory concentration (IC50) in data set [1] was 45.6 nM; in data set [3] it was 31 nM; in data set [4], 21.2 nM; in data set [5], ≥ 5000 nM; in data set [7], 4570 nM. Further, the efflux ratio at 2 h, 1 μM in data set [2] came to 1.6; in data set [6] (setting [8]), 7.
On to `CO[C@@H]1CN(c2ncc3ncnc(Nc4ccc(Oc5ccc6c(c5)ncn6C)c(C)c4)c3n2)C[C@@H]1O` [Example 194, (3S,4R)-4-methoxy-1-(8-((3-methyl-4-((1-methyl-1H-benzo[d]imidazol-5-yl)oxy)phenyl)amino)pyrimido[5,4-d]pyrimidin-2-yl)pyrrolidin-3-ol], for which the 50% inhibitory concentration (IC50) in data set [1] is 44.5 nM; in data set [3], 23.5 nM; in data set [4], 17.8 nM; in data set [5], ≥ 5000 nM; in data set [7] it was 8730 nM. Moreover, the values for the efflux ratio at 2 h, 1 μM in data set [2] and in data set [6] (setting [8]) were 1.9 and 32.4, respectively.
Take `Cc1cc(Nc2ncnc3cnc(N4CCC[C@@](C)(O)C4)nc23)ccc1Oc1ccc2c(c1)ncn2C` [Example 196, (R)-3-methyl-1-(8-((3-methyl-4-((1-methyl-1H-benzo[d]imidazol-5-yl)oxy)phenyl)amino)pyrimido[5,4-d]pyrimidin-2-yl)piperidin-3-ol]: the half-inhibitory concentration (IC50) was 8.7 nM in data set [1]; 9.1 nM in data set [3]; 8.2 nM in data set [4]; ≥ 5000 nM in data set [5]; 883 nM in data set [7]. The results for the efflux ratio at 2 h, 1 μM in data set [2] and in data set [6] (setting [8]) were 1.6 and 13.2, respectively.
Turning to `CO[C@H]1CN(c2ncc3ncnc(Nc4ccc(Oc5ccc6c(c5)ncn6C)c(C)c4)c3n2)C[C@H]1O` [Example 197, (3R,4S)-4-methoxy-1-(8-((3-methyl-4-((1-methyl-1H-benzo[d]imidazol-5-yl)oxy)phenyl)amino)pyrimido[5,4-d]pyrimidin-2-yl)pyrrolidin-3-ol], the half-maximal inhibitory concentration (IC50) in data set [1] was 44.9 nM; in data set [3], 21 nM; in data set [4] it was 14.1 nM; in data set [5], ≥ 5000 nM; in data set [7], 8640 nM. The efflux ratio at 2 h, 1 μM was determined as 1.8 in data set [2] and 35.7 in data set [6] (setting [8]).
`Cc1cc(Nc2ncnc3cnc(N4C[C@H](O)C(F)(F)C4)nc23)c(F)cc1Oc1ccc2c(c1)ncn2C` [Example 202, (S)-4,4-difluoro-1-(8-((2-fluoro-5-methyl-4-((1-methyl-1H-benzo[d]imidazol-5-yl)oxy)phenyl)amino)pyrimido[5,4-d]pyrimidin-2-yl)pyrrolidin-3-ol]: the half-inhibitory concentration (IC50) in data set [1] is 49.2 nM; in data set [3], 31.1 nM; in data set [4] it was 25.7 nM; in data set [5] it was ≥ 5000 nM; in data set [7] it was ≥ 10000 nM. For the same molecule, the efflux ratio at 2 h, 1 μM in data set [2] came out at 1.2; in data set [6] (setting [8]), 6.4.
On to `Cc1cc(Nc2ncnc3cnc(N4CC5(C4)CC(O)(C(F)F)C5)nc23)ccc1Oc1ccc2c(c1)ncn2C` [Example 210, 6-(difluoromethyl)-2-(8-((3-methyl-4-((1-methyl-1H-benzo[d]imidazol-5-yl)oxy)phenyl)amino)pyrimido[5,4-d]pyrimidin-2-yl)-2-azaspiro[3.3]heptan-6-ol], for which the IC50 in data set [1] is 27 nM; in data set [3] it was 30.2 nM; in data set [4] it was 40.5 nM; in data set [5] it was ≥ 5000 nM; in data set [7], ≥ 10000 nM. Also, the efflux ratio at 2 h, 1 μM in data set [2] came to 1.7; in data set [6], 36.8.
Regarding `Cc1cc(Nc2ncnc3cnc(N4C[C@@H](O)C5(CC5)C4)nc23)ccc1Oc1ccc2c(c1)ncn2C` [Example 211, (S)-5-(8-((3-methyl-4-((1-methyl-1H-benzo[d]imidazol-5-yl)oxy)phenyl)amino)pyrimido[5,4-d]pyrimidin-2-yl)-5-azaspiro[2.4]heptan-7-ol], the concentration for half-maximal inhibition (IC50) in data set [1] was 14.8 nM; in data set [3] it was 31 nM; in data set [4], 10.9 nM; in data set [5] it was ≥ 5000 nM; in data set [7], 3140 nM. In addition, the efflux ratio at 2 h, 1 μM in data set [2] came out at 3.3; in data set [6] it was 25.2.
Turning to `Cc1cc(Nc2ncnc3cnc(N4C[C@H](O)C5(CC5)C4)nc23)ccc1Oc1ccc2c(c1)ncn2C` [Example 212, (R)-5-(8-((3-methyl-4-((1-methyl-1H-benzo[d]imidazol-5-yl)oxy)phenyl)amino)pyrimido[5,4-d]pyrimidin-2-yl)-5-azaspiro[2.4]heptan-7-ol], the concentration for half-maximal inhibition (IC50) is 10.3 nM in data set [1]; 22.9 nM in data set [3]; 12.8 nM in data set [4]; ≥ 5000 nM in data set [5]; 2410 nM in data set [7]. The figures for the efflux ratio at 2 h, 1 μM in data set [2] and in data set [6] were 2.8 and 31.4, respectively.
